Holding throughout (type): in vivo, human
Test [1] concerns Caucasian and Asian volunteers. Nature of the test: Clinical assessment of pore size and shiny appearance in volunteers, once-daily topical application. To be noted: after 28 days of treatment, extract at 2%, zinc gluconate 1%. The procedure:
(§1) The principle of this evaluation is based on the clinical and instrumental analysis of samples of secretions of sebum using Sebutape™ patches according to the conventional method.
(§2) The products tested were: • the extract according to the invention prepared in accordance with Example 1 a) is tested at final concentrations of from 0.5% to 2% of extract 1 a) diluted in water • an aqueous solution of zinc gluconate at 1% (10 mg/mL; 2.2×10^−2 mol/L) in water is used as positive control • no solution as negative control
(§3) The following treatment was carried out for each of the products tested: Caucasian and Asian volunteers applied a test product once a day, in blind conditions. Clinical and instrumental assessments, by application of Sebutape™ patches, were carried out on D0, D14 and D28 and the contents of these samples of Sebutape™ patches were analysed quantitatively by image analyser (polarimetric imaging).
(§4) The experiment was conducted on Caucasian and Asian volunteers according to the conditions described in Example 3 for 28 days of treatment (last application on D27 in the evening). Assessments carried out on D30 allowed the persistence of the effect of an extract according to the invention on the production of sebum to be evaluated, two days after stopping the treatment.

The test system of test [2] is Caucasian and Asian volunteers. Put plainly: Squalene content of sebum sampled with Sebutape patches (HPTLC, densitometry). To be noted: after 28 days of treatment; zinc gluconate 1%; signed change. The procedure: as §1, §2, §3
Determination of the squalene taken in the Sebutape™ patches was carried out as follows:
The Sebutape™ patches were treated by extraction with 10 ml of ether. […]
The squalene spots were then quantified by densitometry using an instrument of the ChromatoScan CS-93 (Shimadzu) type. Reading was based on absorption at 450 nm and the area of the peaks was expressed in arbitrary units in the table of results given below.

The subject of test [3] is Caucasian and Asian volunteers. Put plainly: Number of active sebaceous glands (number of spots on Sebutape patches, image analysis). The procedure: as §1, §2
The following treatment was carried out for each of the products tested: Caucasian and Asian volunteers applied a test product once a day, in blind conditions. Clinical and instrumental assessments, by application of Sebutape™ patches, were carried out on D0, D14 and D28 and the contents of these samples of Sebutape™ patches were analysed quantitatively by image analyser (polarimetric imaging). […]
as §4

The test system of the next test is Asian volunteers. Put plainly: Self-evaluation of skin texture (refinement of skin grain) after stopping treatment. To be noted: 2 days after stopping the treatment, extract at 2%, zinc gluconate positive control. The procedure: as §4
Results for skin texture: (self-evaluation)
Moreover, 2 days after stopping the treatment, 71% of the Asian volunteers who had applied the extract according to Example 1 a) at 2% declared that there was refinement of their skin grain (p<0.05). In comparison, only 52% of the volunteers in the group of volunteers who had applied the positive control (zinc gluconate) noticed an improvement in this parameter.

As for zinc gluconate [Zinc gluconate 1%], the “Reduction of pore size (clinical assessment)” value in test [1] amounted to 17.5%. For the same substance, the “Change of content of squalene in the sebum” value in test [2] is on record as −14%. In addition, in test [3] (number of spots on Sebutape patches 2 days after stopping the treatment compared against D0), the “Active sebaceous glands, % Dn/D0, 2 days after D28” value was −3.8%. Moreover, the “Active sebaceous glands, % Dn/D0, D28” value in test [3] (number of spots on Sebutape patches after 28 days compared against D0) is reported as “+8.5%”. Further, the “Volunteers who declared refinement of their skin grain (self-evaluation)” value in the test on Asian volunteers turned out to be 52%.
